The results in this text go back to patent publication US12390437B2, “Itaconic acid derivatives and uses thereof intreating an inflammatory disease or a disease associated with an undesirable immune response” (Sitryx Therapeutics Limited, priority 2019, dated 2025).

Data set [1] relates to IL-6 cytokine output from THP-1s. The experiment in a line: THP-1 AlphaLISA IL-6 cytokine assay. In kind it is cell-based, human. As to conditions: Homo sapiens; PMA-differentiated THP-1 cells, LPS 24 hr then Nigericin 1 hour. The method, boiled down:
(§1)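 Percent inhibition, normalised to plus- and minus-LPS controls, was plotted against concentration to derive IC50. Differentiated THP-1 cells received compound 30 min ahead of LPS (24 h) and a 1 h nigericin pulse; AlphaLISA quantified supernatant cytokine.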
On the technique in general: Bead proximity is the source of the signal in Alpha formats.

Data set [2] has as its system IL-1β cytokine output from THP-1s. The experiment in a line: THP-1 AlphaLISA IL-1β cytokine assay. In kind it is cell-based, human. As to conditions: Homo sapiens, read-out: IL-1β (IC50). The method, boiled down: as §1
Data set [3] can be described thus: Mouse pharmacokinetic study, intravenous dosing. In kind it is in vivo. As to conditions: 10 mg/kg i.v.; for concentration at 0.05 h / concentration at 0.133 h / concentration at 0.25 h / concentration at 0.5 h / concentration at 1 h / concentration at 2 h / concentration at 4 h / concentration at 6 h / concentration at 8 h: male, C57BL/6, mouse, iv, plasma, read-out: Parent compound concentration following intravenous administration. The method, boiled down: (§2)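 Plasma levels were quantified by LC-MS/MS after dosing male C57BL/6 mice either intravenously (10 mg/kg, sampled to 8 hours) or orally by gavage (100 mg/kg, sampled to 24 hours), with three animals per time point.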

Data set [4] in a line: Mouse pharmacokinetic study, oral administration. The class given is in vivo. The following applies: for concentration at 0.083 h / concentration at 0.25 h / concentration at 0.5 h / concentration at 1 h / concentration at 2 h / concentration at 4 h / concentration at 6 h / concentration at 8 h / concentration at 24 h: male, C57BL/6, mouse, plasma, po, 100 mg/kg, male C57BL/6 mice, oral gavage 100 mg/kg; for concentration at 0.083 h: read-out: Parent compound concentrations following oral administration, Time 0.083 h; for concentration at 0.25 h: read-out: Parent compound concentrations following oral administration, Time 0.25 h; for concentration at 0.5 h: read-out: Parent compound concentrations following oral administration, Time 0.5 h; for concentration at 1 h: read-out: Parent compound concentrations following oral administration, Time 1 h; for concentration at 2 h: read-out: Parent compound concentrations following oral administration, Time 2 h; for concentration at 4 h: read-out: Parent compound concentrations following oral administration, Time 4 h; for concentration at 6 h: read-out: Parent compound concentrations following oral administration, Time 6 h; for concentration at 8 h: read-out: Parent compound concentrations following oral administration, Time 8 h; for concentration at 24 h: read-out: Parent compound concentrations following oral administration, Time 24 h. Summed up: as §2

The mark [5] stands for this setting: THP-1, PMA-differentiated THP-1 cells, LPS 24 hr then Nigericin 1 hour.

Where two headings read alike, the source gives them in different places.

A word on the IC50: it is the concentration at which inhibition is half-maximal.

In the case of `C=C(CC(=O)OC1CCCCCCC1)C(=O)OCCC(=O)O` [Example 82, 3-((4-(cyclooctyloxy)-2-methylene-4-oxobutanoyl)oxy)propanoic acid], the IC50 in data set [1] worked out at 18.9 µM. For the same molecule, the IC50 in data set [2] (setting [5]) was 25.7 µM. For the same molecule, in data set [3], the concentration at 0.05 h is 17600 ng/mL, the concentration at 0.133 h was determined as 8350 ng/mL, the concentration at 0.25 h was 2780 ng/mL and the concentration at 0.5 h stood at 752 ng/mL. Besides, in data set [3], the concentration at 1 h was found to be 69 ng/mL, the concentration at 2 h was 2.2 ng/mL, the concentration at 4 h is 1.4 ng/mL and the concentration at 6 h came to 1.6 ng/mL. In data set [3], the concentration at 8 h was below 0.8 ng/mL. In addition, in data set [4], the concentration at 0.083 h worked out at 27500 ng/mL, the concentration at 0.25 h worked out at 18000 ng/mL, the concentration at 0.5 h amounted to 6450 ng/mL and the concentration at 1 h amounted to 3400 ng/mL. In data set [4], the concentration at 2 h stood at 1040 ng/mL, the concentration at 4 h was determined as 568 ng/mL, the concentration at 6 h stood at 112 ng/mL and the concentration at 8 h was found to be 86 ng/mL. In addition, in data set [4], the concentration at 24 h is below 0.8 ng/mL.
`C=C(CC(=O)O[C@H](C)CCCCCC)C(=O)OCCC(=O)O` [Example 88, (R)-3-((2-methylene-4-(octan-2-yloxy)-4-oxobutanoyl)oxy)propanoic acid] had a concentration for half-maximal inhibition (IC50) in data set [1] of 20.4 µM. For the same molecule, the IC50 in data set [2] (setting [5]) came out at 25.2 µM. Also, in data set [3], the concentration at 0.05 h was 42500 ng/mL, the concentration at 0.133 h is 23500 ng/mL, the concentration at 0.25 h amounted to 12400 ng/mL and the concentration at 0.5 h is 6250 ng/mL. Besides, in data set [3], the concentration at 1 h came out at 2510 ng/mL, the concentration at 2 h was 200 ng/mL, the concentration at 4 h was determined as 40 ng/mL and the concentration at 6 h amounted to 11 ng/mL. Further, in data set [3], the concentration at 8 h worked out at 4.2 ng/mL. In data set [4], the concentration at 0.083 h was found to be 53900 ng/mL, the concentration at 0.25 h was 43600 ng/mL, the concentration at 0.5 h turned out to be 33800 ng/mL and the concentration at 1 h is 12700 ng/mL. Moreover, in data set [4], the concentration at 2 h amounted to 10500 ng/mL, the concentration at 4 h turned out to be 4100 ng/mL, the concentration at 6 h came to 1950 ng/mL and the concentration at 8 h turned out to be 72 ng/mL. Besides, in data set [4], the concentration at 24 h is 5.5 ng/mL.
In turn, `C=C(CC(=O)OC1CCCCCCC1)C(=O)OCC(=O)O` [Example 90, 2-((4-(cyclooctyloxy)-2-methylene-4-oxobutanoyl)oxy)acetic acid] returned an IC50 in data set [1] of 9.8 µM. Moreover, the IC50 in data set [2] (setting [5]) turned out to be 16.4 µM. Further, in data set [3], the concentration at 0.05 h turned out to be 19200 ng/mL, the concentration at 0.133 h was 7160 ng/mL, the concentration at 0.25 h amounted to 2020 ng/mL and the concentration at 0.5 h amounted to 1600 ng/mL. For the same molecule, in data set [3], the concentration at 1 h was determined as 89 ng/mL, the concentration at 2 h worked out at 3.6 ng/mL, the concentration at 4 h is 2.8 ng/mL and the concentration at 6 h is 1.7 ng/mL. Besides, the concentration at 8 h in data set [3] was 1.2 ng/mL. Also, in data set [4], the concentration at 0.083 h amounted to 22900 ng/mL, the concentration at 0.25 h amounted to 10600 ng/mL, the concentration at 0.5 h is 6200 ng/mL and the concentration at 1 h turned out to be 3370 ng/mL. Moreover, in data set [4], the concentration at 2 h stood at 3470 ng/mL, the concentration at 4 h came out at 1640 ng/mL, the concentration at 6 h stood at 1050 ng/mL and the concentration at 8 h is 500 ng/mL. For the same molecule, in data set [4], the concentration at 24 h worked out at 1.1 ng/mL.
Take `C=C(CC(=O)O[C@@H](C)CCCCCC)C(=O)OCCC(=O)O` [Example 84, (S)-3-((2-methylene-4-(octan-2-yloxy)-4-oxobutanoyl)oxy)propanoic acid]: in data set [1], 22 µM corresponded to half-maximal inhibition (IC50). The IC50 in data set [2] (setting [5]) came out at 14.3 µM. Moreover, in data set [3], the concentration at 0.05 h was found to be 5580 ng/mL, the concentration at 0.25 h is 1030 ng/mL, the concentration at 0.5 h is 217 ng/mL and the concentration at 1 h worked out at 34 ng/mL. Also, in data set [3], the concentration at 2 h is 6.5 ng/mL, the concentration at 4 h was below 2 ng/mL and the concentration at 6 h is below 2 ng/mL. In data set [4], the concentration at 0.25 h stood at 9090 ng/mL, the concentration at 0.5 h stood at 5120 ng/mL, the concentration at 1 h was found to be 3310 ng/mL and the concentration at 2 h stood at 1000 ng/mL. Moreover, in data set [4], the concentration at 4 h worked out at 368 ng/mL, the concentration at 8 h amounted to 217 ng/mL and the concentration at 24 h is below 31 ng/mL.
The molecule `C=C(CC(=O)OC)C(=O)OC` [dimethyl itaconate, reference compound] returned a half-inhibitory concentration (IC50) in data set [1] of 100 µM. Besides, the IC50 in data set [2] (setting [5]) is above 100 µM. Further, in data set [2] (THP-1, Table 10, assay of Biological Example 1 (THP-1)), the IC50 was above 100 µM. Moreover, in data set [3], the concentration at 0.05 h amounted to 874 ng/mL, the concentration at 0.133 h was below 24 ng/mL, the concentration at 0.25 h was below 24 ng/mL and the concentration at 0.5 h is below 24 ng/mL. Besides, in data set [3], the concentration at 1 h is below 24 ng/mL, the concentration at 2 h was below 24 ng/mL, the concentration at 4 h was below 24 ng/mL and the concentration at 6 h was below 24 ng/mL. In data set [3], the concentration at 8 h was below 24 ng/mL. Also, in data set [3] (mouse), the “Quantifiability in plasma following intravenous dosing” value is on record as “only quantifiable at one timepoint”. In addition, in data set [4], the concentration at 0.083 h was below 24 ng/mL, the concentration at 0.25 h is below 24 ng/mL, the concentration at 0.5 h is below 24 ng/mL and the concentration at 1 h is below 24 ng/mL. In addition, in data set [4], the concentration at 2 h was below 24 ng/mL, the concentration at 4 h was below 24 ng/mL, the concentration at 6 h is below 24 ng/mL and the concentration at 8 h was below 24 ng/mL. Also, the concentration at 24 h in data set [4] was below 24 ng/mL. In addition, in data set [4] (mouse, 100 mg/kg oral), the “Quantifiability in plasma following oral administration” value was “below the limit of quantification at all timepoints”.
Consider `C=C(CC(=O)OC1CC2(CCC2)C1)C(=O)OCC(=O)O` [Example 96, 2-((2-methylene-4-oxo-4-(spiro[3.3]heptan-2-yloxy)butanoyl)oxy)acetic acid], for which the half-maximal inhibitory concentration (IC50) in data set [1] is 47.1 µM. Also, the 50% inhibitory concentration (IC50) in data set [2] (setting [5]) was 15.7 µM. In data set [3], the concentration at 0.05 h came to 15100 ng/mL, the concentration at 0.133 h is 3590 ng/mL, the concentration at 0.25 h is 659 ng/mL and the concentration at 0.5 h worked out at 169 ng/mL. Further, in data set [3], the concentration at 1 h is 6.4 ng/mL, the concentration at 2 h was 3 ng/mL, the concentration at 4 h is below 0.8 ng/mL and the concentration at 6 h was below 0.8 ng/mL. The concentration at 8 h in data set [3] was below 0.8 ng/mL. In addition, in data set [4], the concentration at 0.083 h is 15300 ng/mL, the concentration at 0.25 h is 4770 ng/mL, the concentration at 0.5 h was found to be 3780 ng/mL and the concentration at 1 h was determined as 1550 ng/mL. Further, in data set [4], the concentration at 2 h turned out to be 810 ng/mL, the concentration at 4 h worked out at 856 ng/mL, the concentration at 6 h was found to be 330 ng/mL and the concentration at 8 h turned out to be 443 ng/mL. Besides, the concentration at 24 h in data set [4] is below 0.8 ng/mL.
With `C=C(CC(=O)OCCCOc1ccccc1)C(=O)OCCC(=O)O` [Example 86, 3-((2-methylene-4-oxo-4-(3-phenoxypropoxy)butanoyl)oxy)propanoic acid], in data set [1], the midpoint of inhibition, the IC50, lay at 15.7 µM. The 50% inhibitory concentration (IC50) in data set [2] (setting [5]) is 100 µM. Moreover, in data set [4], the concentration at 0.25 h was found to be 41 ng/mL, the concentration at 0.5 h was determined as 943 ng/mL, the concentration at 1 h is 686 ng/mL and the concentration at 2 h is 149 ng/mL. For the same molecule, in data set [4], the concentration at 4 h was found to be 19 ng/mL, the concentration at 8 h was below 3 ng/mL and the concentration at 24 h was below 3 ng/mL.
